This is an account of results in patent publication US7183306B2, “Pyrazole derivatives” (Astellas Pharma Inc., priority 2002, dated 2007).

SMILES strings stand for the structures.

`COc1ccc(-n2nc(C(C)C)cc2-c2ccc(OCCNC(N)=O)cc2)cn1` showed a melting point of 106 to 107 °C. In turn, `COC(=O)NCCc1ccc(-c2cc(C(F)(F)F)nn2-c2ccc(OC)cc2)cc1` registered a melting point of 78 to 80 °C.

Turning to `COc1ccc(-n2nc(C(F)(F)F)cc2-c2ccc(CCNS(N)(=O)=O)cc2)cc1`, the melting point lay in the range of 127 to 128 °C. Under `CCN(C)C(=O)c1cc(-c2ccc(CCNS(C)(=O)=O)cc2)n(-c2ccc(OC)nc2)n1` stands 137 to 138 °C.

In turn, `COc1ccc(-n2nc(C#N)cc2-c2ccc(OCCNS(C)(=O)=O)cc2)cc1` gave a melting point of 149 to 153 °C. The figure for `CCN(C)C(=O)c1cc(-c2ccc(OCCO)cc2)n(-c2ccc(OC)nc2)n1` is 110 to 111 °C.

In turn, `COc1ccc(-n2nc(C(=O)C(C)C)cc2-c2ccc(OCCN)cc2)cn1.Cl.Cl` registered a melting point of 156 to 161 °C. Under `CCN(C)C(=O)c1cc(-c2ccc(OCCNC(N)=O)cc2)n(-c2ccc(OC)cc2)n1` stands 108 to 113 °C; under `COc1ccc(-n2nc(C#N)cc2-c2ccc(OCCNC(N)=O)cc2)cn1`, 173 to 176 °C; under `COc1ccc(-n2nc(Cl)cc2-c2ccc(OCCO)cc2)cn1`, 136.5 to 138.2 °C.

As to `COc1ccc(-n2nc(C3CC3)cc2-c2ccc(OCCO)cc2)cc1`, the melting point was in the range of 142 to 144 °C. For `COc1ccc(-n2nc(C(F)(F)F)cc2-c2ccc(CCS(N)(=O)=O)cc2)cc1`, the melting point is 131 to 132 °C. Take `COc1ccc(-n2nc(C(F)(F)F)cc2-c2ccc(CCOC(N)=O)cc2)cc1`: the melting point is 169 to 170 °C.

`COc1ccc(-n2nc(S(C)(=O)=O)cc2-c2ccc(OCCNC(N)=O)cc2)cc1` yielded a melting point of 165 to 167 °C. Under `COc1ccc(-n2nc(Cl)cc2-c2ccc(OCCNS(C)(=O)=O)cc2)cn1` stands 112 to 114 °C.

As for `COc1ccc(-n2nc(OCC(C)C)cc2-c2ccc(OCCNS(C)(=O)=O)cc2)cc1`, the melting point was 164.3 to 165.2 °C.

`COc1ccc(-n2nc(OC)cc2-c2ccc(OCCNS(C)(=O)=O)cc2)cn1`: the melting point fell in the range of 116 to 117.5 °C. The figure for `CCOc1cc(-c2ccc(OCCNS(C)(=O)=O)cc2)n(-c2ccc(OC)nc2)n1` is 122 to 122.6 °C; for `COc1ccc(-n2nc(C(F)F)cc2-c2ccc(CNS(C)(=O)=O)cc2)cn1` it is 125.7 to 126.1 °C; for `CCN(C)C(=O)c1cc(-c2ccc(OCCNS(C)(=O)=O)cc2)n(-c2ccc(OC)cc2)n1` it is 106 to 106.3 °C. The figure for `COc1ccc(-n2nc(C(=O)C(C)C)cc2-c2ccc(CNS(C)(=O)=O)cc2)cn1` is 160.8 to 161.2 °C; for `COc1ccc(-n2nc(C(C)C)cc2-c2ccc(OCCNC(N)=O)cc2)cc1` it is 100 to 104 °C; for `CCOc1cc(-c2ccc(OCCO)cc2)n(-c2ccc(OC)cc2)n1` it is 67.7 to 69.2 °C. The compound `COc1ccc(-n2nc(OCC(F)(F)F)cc2-c2ccc(OCCO)cc2)cn1` returned a melting point of 91.2 to 91.3 °C. The figure for `COc1ccc(-n2nc(C(=O)N3CCCCC3)cc2-c2ccc(OCCNC(N)=O)cc2)cn1` is 164 to 167 °C. Under `CCN(C)C(=O)c1cc(-c2ccc(OCCNC(N)=O)cc2)n(-c2ccc(OC)nc2)n1` stands 146.3 to 146.7 °C; under `COc1ccc(-n2nc(OCC(F)(F)F)cc2-c2ccc(OCCNC(N)=O)cc2)cn1`, 134.8 to 134.9 °C; under `COc1ccc(-n2nc(C(=O)N3CCCCC3)cc2-c2ccc(CNC(N)=O)cc2)cn1`, 178.9 °C.

Compound `COc1ccc(-n2nc(SC)cc2-c2ccc(OCCNC(N)=O)cc2)cc1` had a melting point of 141.2 to 142.2 °C. The figure for `COc1ccc(-n2nc(C(F)(F)F)cc2-c2ccc(CCNC(N)=O)cc2)cn1` is 205 to 206 °C; for `CSc1ccc(-n2nc(C(F)F)cc2-c2ccc(OCCNC(N)=O)cc2)cc1` it is 184.3 to 184.7 °C.

For orientation: melting point means the temperature, or range, at which the solid turns liquid.
